Data as given in patent US9011956B2, “Natural high-potency sweetener compositions with improved temporal profile and/or flavor profile, methods for their formulation, and uses” (The Coca-Cola Company, priority 2005, dated 2015).
Blank lines part the entries; values can stand above or below the compound they belong to.

How the values were obtained:
[1] = Sweetness linger sensory evaluation by expert panel (protocol of Example A); assay type: in vivo, human; design: key: 0=no sweetness linger; 1=very slight sweetness linger; 2=slight sweetness linger; 3=moderate sweetness linger; 4=moderately high sweetness linger; 5=high sweetness linger
Procedure: In a particular embodiment, a panel of assessors is used to measure the reduction of sweetness linger. Briefly described, a panel of assessors (generally 8 to 12 individuals) is trained to evaluate sweetness perception and measure sweetness at several time points from when the sample is initially taken into the mouth until 3 minutes after it has been expectorated. […] A decrease in score for a time point measured after the sample has cleared the mouth indicates there has been a reduction in sweetness perception.
Generally, the method of measuring sweetness comprises taking a 10 mL sample into the mouth, holding the sample in the mouth for 5 seconds and gently swirling the sample in the mouth, rating the sweetness intensity perceived at 5 seconds, expectorating the sample (without swallowing following expectorating the sample), rinsing with one mouthful of water (e.g., vigorously moving water in mouth as if with mouth wash) and expectorating the rinse water, rating the sweetness intensity perceived immediately upon expectorating the rinse water, waiting 45 seconds and, while waiting those 45 seconds, identifying the time of maximum perceived sweetness intensity and rating the sweetness intensity at that time (moving the mouth normally and swallowing as needed), rating the sweetness intensity after another 10 seconds, rating the sweetness intensity after another 60 seconds (cumulative 120 seconds after rinse), and rating the sweetness intensity after still another 60 seconds (cumulative 180 seconds after rinse). Between samples take a 5 minute break, rinsing well with water to clear the mouth.
(§1) An exemplary method of sensory evaluation is provided in the following protocol, similar to that described hereinabove. In this test protocol, none of the samples were swallowed. All samples were expectorated and the mouth was rinsed with water after the tasting. In step 1, the 10% sucrose control sample was tasted by distributing ca. 10 mL of sample quickly throughout the oral cavity, wherein the maximal “Sweetness Intensity” was measured. This intensity is defined as a 10 on a 0-15 scale where 0 is defined as no perceptible sweetness and 15, the sweetness of 15% sucrose. Immediately upon sensing maximal sweetness, the sample was expectorated, the mouth was rinsed with water and the rate of sweetness decay (“Sweetness Linger”) was measured, where attention was focused on the sweetness 3-4 min after the water rinse. The sweetness linger was rated by a panel of experts in the sensory evaluation of foods and beverages using the following scale: 0=no sweetness linger, 1=very slight sweetness linger, 2=slight sweetness linger, 3=moderate sweetness linger, 4=moderately high sweetness linger, 5=high sweetness linger. After sample tasting was complete, a salty oyster cracker was chewed followed by a water rinse, and at least 5 minutes followed before tasting the next sample.
The “Sweetness Linger” rating for sucrose observed by this protocol was defined as 0. Experimental samples were tasted by the same protocol, always allowing sufficient time between samples to ensure re-equilibration of the sensory system. Re-tasting of control samples during the course of the experiment was allowed and encouraged.
The comparison taste test was performed between two controls and addition of sweet taste improving additive on the onset and/or sweetness linger.
Where there are ranges provided in the examples, a number of beverages comprising the NHPS, such as rebaudioside-A (REBA), were made 5-7 levels from the top to the bottom range, using a 1:1 dilution of the corresponding sweet taste improving compositions. The sweetness linger rating reported was the most sugar-like in sweetness linger (the lowest numerical value) attained of all the samples (i.e., the shortest sweetness linger). The tasting protocol and sensory scores described in the exemplary protocol of Example A were used in the Examples of Set B. […]

[2] = Sweetness level as sucrose equivalent; assay type: in vivo, human
Procedure: as §1

[3] = assay type: physicochemical
Procedure: A solution of rebaudioside A (>97% pure by HPLC) was prepared in double distilled water (12.5 gm in 50 mL, 25% concentration) by stirring the mixture at 40° C. for 5 minutes. An amorphous form of rebaudioside A was formed by immediately using the clear solution for spray drying with the Lab-Plant spray drier SD-04 instrument (Lab-Plant Ltd., West Yorkshire, U.K.). The solution was fed through the feed pump into the nozzle atomizer which atomized it into a spray of droplets with the help of a constant flow of nitrogen/air. […] This dry powder (11-12 g, H2O 6.74%) was discharged continuously from the drying chamber and was collected in a bottle.

Compound: OC[C@H]1O[C@@](CO)(O[C@H]2O[C@H](CO)[C@@H](O)[C@H](O)[C@H]2O)[C@@H](O)[C@@H]1O [sugar, sucrose]
- sweetness linger rating ([1]; control: 8 g of sugar in 100 ml of citrate buffer): 0
- sweetness linger rating ([1]; control: 10 g in 100 ml of carbon treated water): 0
- sweetness linger rating ([1]; control: 10 g of sugar in 100 ml carbon treated water, phosphoric acid to pH 2.4-2.5): 0

Compound: mono-ammonium glycyrrhizic acid salt hydrate
- sweetness linger ([1]; control: 375 mg in one liter of carbon-treated water): 5
- sweetness level ([2]; 375 mg in one liter of carbon-treated water): 4 % sucrose equivalent

- solubility in water at room temperature [3]: > 35.0%
Compound: rebaudioside A [Form 4]

Compound: rebaudioside A
- sweetness linger rating ([1]; control: 400 ppm REBA in citric acid/potassium citrate composition equivalent to diet lemon-lime beverage): 5
- sweetness linger rating ([1]; control: 500 ppm REBA in carbon-treated water, phosphoric acid to pH 2.4-2.5): 5
- sucrose equivalent of sweetness ([2]; 180 ppm REBA): 5 % sucrose
- sucrose equivalent of sweetness ([2]; 400 ppm REBA in citric acid/potassium citrate composition): 8 g sucrose
